In article PMC10449633 (Nature Chemical Biology, 2023):
Several values for one entry are separate records, joined by “and”; a condition that tells them apart may be missing. Equal entries are not always repeated. Where two headings read alike, the source gives them in different places. Numbered stars: 1 amine (or outer) side, 2 acyl side, 3 side chain; on linkers, the order of the positions; unused ones are H or OH. Square brackets hold non-standard residues; d marks the D form. Peptide text beside a SMILES is read from it. ξ: configuration not given here. X1 = CN(C(Cc1cn(Cc2ccc(Br)cc2)c2ccccc12)C(=O)[*:2])[*:1]; ξAla(CF3) = NC(CC(F)(F)F)C(=O)O; X2 = N#CCCC(O[*:1])C(=O)[*:2]; NMeL = CN[CH](CC(C)C)C(=O)O; NMeA = CN[CH](C)C(=O)O

Experiments:
WT Sec61α = molecular target: T1, WT Sec61α (Canis lupus familiaris, UniProt P38377); assay: GLuc secretion reporter fused to full-length IL-2 or TNF, cells stably expressing WT Sec61α; format: cell-based, canine; details: for Sec61 WT - Hu IL2(FL) / Sec61 WT - Hu PD1(ss) / Sec61 WT - Hu TNFa(FL): replicate columns
T1 construct: expressed in transfected cells

Sec61 = molecular target: T2, Sec61 (Homo sapiens, UniProt P61619); assay: cell-based; format: cell-based; details: for remaining activity at 0.000660151 µM: Drug nM (log10) 0.660151; for remaining activity at 0.00050805 µM: Drug nM (log10) -0.29409
T2 construct: endogenous in cells

Sec61α (HEK 293 FRT) = molecular target: T3, Sec61α (HEK 293 FRT) (Homo sapiens, UniProt P61619); assay: Luciferase reporter assay in parental HEK 293 FRT cells; format: cell-based; details: HEK293, 24 h
T3 construct: host or cells: HEK293 Flp-In T-REx (parental, 'HEK 293 FRT')
From the text: All mutants were sequence verified.

SARS-CoV-2 = format: cell-based; details: 48 h
Sec61α = assay: Photo-cotransin (CT7) photo-affinity labeling competition, LMNG-solubilized ER microsomes; format: binding, sheep; details: excess competitor, LMNG-solubilized ER membranes
From the text: To understand the molecular basis of Sec61 inhibition by KZR-8445, we pursued structural investigations using single-particle cryo-EM. Our initial attempts to isolate cotransin-bound ribosome–Sec61 complexes with the commonly used detergent digitonin were not successful. Several other detergents were screened for retention of native-like cotransin binding by subjecting solubilized Sec61 to a cotransin photo-affinity labeling assay[15] (Extended Data Fig. 2a). This screen identified lauryl maltoside neopentyl glycol (LMNG), a lipid-mimetic detergent that permits maximal photo-cotransin binding, as indicated by specific crosslinking to the Sec61α subunit in LMNG-solubilized ER membranes.
Sheep pancreatic ER microsomes (SRM) were isolated according to the method described earlier[48],[49]. […] The labeled proteins were analyzed by SDS–PAGE and in-gel fluorescence followed by Western blotting using anti-Sec61α and anti-RPL18 antibodies. […]
Extended Data Fig. 2 Isolation and biochemical characterization of the inhibitor-bound ribosome-Sec61 (RNC) complexes. […] (c) Gel filtration profile of clarified detergent-solubilized sample fractions with measured absorbance at A260. […]

Sec61α Q294A = Sec61α Q294A (Canis lupus familiaris, UniProt P38377, Q294A); assay: Luciferase reporter assay in HEK293 cells expressing Sec61α Q294A; set-up: remaining activity: dose or concentration left out as unconfirmed; details: HEK293, 24 h, read-out: luciferase reporter activity (% of no-drug control), Q294A
Protocol: (§1) Data are mean values ± s.d. from n = 2 independent experiments.
(§2) HEK293T cells (0.3 × 10^6) were seeded per well of a six-well plate and incubated at 37 °C in 5% CO2 for 24 h to adhere. Each of the two wells was transfected with 1 µg of plasmid encoding a luciferase with the signal peptide of either VCAM1 or pPL using PEI in a 5:1 ratio, after which cells were returned to the incubator for a further 24 h. Transfected cells were then resuspended following trypsinization, cell count estimated using a TC20 Automated Cell Counter (BioRad) and diluted to seed a 96-well flat-bottom plate with 1.6 × 10^4 cells per well. […] Cells were then incubated for a further 24 h, after which the luciferase-containing media were transferred to a clean 96-well plate and stored at −20 °C. Luciferase activity of the media was estimated using a Gaussia-GLOW Juice Luciferase Assay kit from PJK Biotech GmbH as per the manufacturer’s instructions. Luminescence was measured using an EnSpire Multimode plate reader (PerkinElmer). Background luminescence from media placed in a well with neither cells nor drug was subtracted from all values, and measurements were calculated as a percentage of luminescence intensity of a well expressing the appropriate luciferase construct in the absence of any drug. Curves were fitted, and IC50 values were calculated using GraphPad Prism 8.
(§3) WT canine Sec61 was cloned into pcDNA5/FRT/TO (Thermo Fisher Scientific), and point mutations were generated using PCR. All mutants were sequence verified. HEK293 Flp-In T-REx cells (Thermo Fisher Scientific, R78007) were cultured in Dulbecco’s modified Eagle’s medium (Gibco) supplemented with 10% FBS (Gibco) at 37 °C in a humidified 5% CO2 atmosphere. Approximately 0.3 µg of pOG44 and 1 µg of targeting construct plasmids were mixed in 250 µl of OptiMEM (Thermo Fisher Scientific, 51985-026). A total of 3 µl (3 µg) Lipofectamine3000 transfection reagent was then added to the DNA mix and incubated at room temperature for 20 min, and the whole mixture was added to the cells. Cells were exposed to 100 µg ml^−^1 hygromycin B (Invitrogen) and 10 µg ml^−^1 blasticidin for 3–4 weeks until the appearance of resistant colonies. Colonies were expanded into T75 flasks and induced with doxycycline (Sigma-Aldrich, D9891) at a concentration of 1–5 µg ml^−^1 for 48 h. Cells were collected, and total RNA was extracted followed by cDNA amplification and sequencing of Sec61 with gene-specific PCR primers to confirm. Cells were then used for the luciferase reporter assays as above.
(§4) Data are mean values ± SD and are representative of n = 2 independent experiments.

Sec61α V303A = Sec61α V303A (Canis lupus familiaris, UniProt P38377, V303A); assay: Luciferase reporter assay in HEK293 cells expressing Sec61α V303A; set-up: remaining activity: dose or concentration left out as unconfirmed; details: HEK293, 24 h, read-out: luciferase reporter activity (% of no-drug control), V303A
Protocol: as §1, §2, §3, §4

[1] = HEK-293T, 24 h, VCAM signal peptide, read-out: secreted luciferase activity (% of no-drug control)
[2] = HEK-293T, 24 h, pPL signal peptide, read-out: secreted luciferase activity (% of no-drug control)

Chain of Sec61α V303A (P60059 whole entry): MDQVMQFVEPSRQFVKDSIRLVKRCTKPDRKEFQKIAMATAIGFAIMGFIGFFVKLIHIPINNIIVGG
Chain of Sec61α V303A (P38377 whole entry V303A): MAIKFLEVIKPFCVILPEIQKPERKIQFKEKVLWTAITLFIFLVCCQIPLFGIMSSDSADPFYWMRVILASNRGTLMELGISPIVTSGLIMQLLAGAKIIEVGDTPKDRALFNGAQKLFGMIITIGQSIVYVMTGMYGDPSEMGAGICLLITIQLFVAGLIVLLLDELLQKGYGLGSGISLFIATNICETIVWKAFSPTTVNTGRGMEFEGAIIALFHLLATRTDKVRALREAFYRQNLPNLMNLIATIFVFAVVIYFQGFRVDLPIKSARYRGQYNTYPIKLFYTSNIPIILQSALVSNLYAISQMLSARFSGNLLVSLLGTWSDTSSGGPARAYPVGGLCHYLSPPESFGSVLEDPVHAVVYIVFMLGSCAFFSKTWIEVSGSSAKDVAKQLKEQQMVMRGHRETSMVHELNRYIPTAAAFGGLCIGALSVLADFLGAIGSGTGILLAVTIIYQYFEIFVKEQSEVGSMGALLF
Chain of Sec61α V303A (P60468 whole entry, further chain): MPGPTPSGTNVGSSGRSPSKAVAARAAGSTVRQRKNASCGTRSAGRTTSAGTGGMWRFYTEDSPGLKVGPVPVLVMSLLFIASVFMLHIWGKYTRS
Chain of Sec61α Q294A (P60059 whole entry): as the sequence (P60059 whole entry) above
Chain of Sec61α Q294A (P38377 whole entry Q294A): as the sequence (P38377 whole entry V303A) above, with Q294A, A303V counted along it
Chain of Sec61α Q294A (P60468 whole entry, further chain): as the sequence (P60468 whole entry, further chain) above
T1 sequence (P60468 whole entry, the tested form may be a part): as the sequence (P60468 whole entry, further chain) above
T1 sequence (P38377 whole entry, the tested form may be a part): as the sequence (P38377 whole entry V303A) above, with A303V counted along it
T1 sequence (P60059 whole entry, further chain, the tested form may be a part): as the sequence (P60059 whole entry) above
T3 sequence (P60468 whole entry): as the sequence (P60468 whole entry, further chain) above
T3 sequence (P60059 whole entry, further chain): as the sequence (P60059 whole entry) above
T3 sequence (P61619 whole entry): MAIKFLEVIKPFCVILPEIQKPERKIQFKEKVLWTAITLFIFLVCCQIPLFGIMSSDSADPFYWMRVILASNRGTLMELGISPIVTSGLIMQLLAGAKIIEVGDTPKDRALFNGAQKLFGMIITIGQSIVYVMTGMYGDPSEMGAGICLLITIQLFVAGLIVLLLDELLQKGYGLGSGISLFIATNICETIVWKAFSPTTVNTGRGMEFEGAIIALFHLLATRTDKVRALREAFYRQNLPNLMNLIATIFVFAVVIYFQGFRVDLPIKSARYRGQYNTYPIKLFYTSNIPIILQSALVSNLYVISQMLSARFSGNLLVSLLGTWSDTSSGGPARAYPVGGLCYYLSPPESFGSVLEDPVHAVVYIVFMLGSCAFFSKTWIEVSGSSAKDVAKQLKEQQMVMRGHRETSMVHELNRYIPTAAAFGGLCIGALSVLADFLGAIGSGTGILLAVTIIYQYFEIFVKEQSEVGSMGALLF
T2 sequence (P61619 whole entry): as above
T2 sequence (P60059 whole entry, further chain): as the sequence (P60059 whole entry) above
T2 sequence (P60468 whole entry, further chain): as the sequence (P60468 whole entry, further chain) above

CC(C)CC1NC(=O)C(Cc2cn(Cc3ccc(Br)cc3)c3ccccc23)N(C)C(=O)C(CC(F)(F)F)NC(=O)C(CC(C)C)N(C)C(=O)C(CC(F)(F)F)NC(=O)C(CCC#N)OC(=O)C(C)N(C)C1=O (stereo not drawn) [KZR-8445] (cyclo([X1]L[NMeA][X2][ξAla(CF3)][NMeL][ξAla(CF3)]); configuration not given here)
Sec61 WT - Hu IL2(FL) (WT Sec61α; 0.32 nM): 112 and 115 and 119
Sec61 WT - Hu PD1(ss) (WT Sec61α; 0.32 nM): 120 and 121 and 116
Sec61 WT - Hu TNFa(FL) (WT Sec61α; 0.32 nM): 132 and 105 and 123
Sec61 WT - Hu IL2(FL) (WT Sec61α; 1.6 nM): 108 and 112 and 116
Sec61 WT - Hu PD1(ss) (WT Sec61α; 1.6 nM): 107 and 115 and 113
Sec61 WT - Hu TNFa(FL) (WT Sec61α; 1.6 nM): 119 and 96 and 85
Sec61 WT - Hu IL2(FL) (WT Sec61α; 8 nM): 105 and 102 and 116
Sec61 WT - Hu PD1(ss) (WT Sec61α; 8 nM): 91 and 108 and 92
Sec61 WT - Hu TNFa(FL) (WT Sec61α; 8 nM): 123 and 114 and 93
Sec61 WT - Hu IL2(FL) (WT Sec61α; 40 nM): 89 and 83 and 75
Sec61 WT - Hu PD1(ss) (WT Sec61α; 40 nM): 62 and 54 and 56
Sec61 WT - Hu TNFa(FL) (WT Sec61α; 40 nM): 81 and 75 and 70
Sec61 WT - Hu IL2(FL) (WT Sec61α; 200 nM): 57 and 37 and 42
Sec61 WT - Hu PD1(ss) (WT Sec61α; 200 nM): 18 (2×) and 19
Sec61 WT - Hu TNFa(FL) (WT Sec61α; 200 nM): 36 and 30 and 29
Sec61 WT - Hu IL2(FL) (WT Sec61α; 1000 nM): 7 and 6 (2×)
Sec61 WT - Hu PD1(ss) (WT Sec61α; 1000 nM): 2
Sec61 WT - Hu TNFa(FL) (WT Sec61α; 1000 nM): 3 (2×) and 2
Sec61 WT - Hu IL2(FL) (WT Sec61α; 5000 nM): 1 and 0 (2×)
Sec61 WT - Hu PD1(ss) (WT Sec61α; 5000 nM): 0
Sec61 WT - Hu TNFa(FL) (WT Sec61α; 5000 nM): 1 and 0 (2×)
Sec61 WT - Hu IL2(FL) (WT Sec61α; 25000 nM): 0
Sec61 WT - Hu PD1(ss) (WT Sec61α; 25000 nM): 0 (2×) and -1
Sec61 WT - Hu TNFa(FL) (WT Sec61α; 25000 nM): 1 and 0 (2×)
IC50 (WT Sec61α; 24 h, doxycycline-induced): ~100 nM
potency against VCAM-GLuc relative to pPL-GLuc (Sec61; HEK293T, 24 h): 20 fold
remaining activity at 0.000660151 µM (Sec61; [1]): 84%
remaining activity at 0.00050805 µM (Sec61; [1]): 92.6%
remaining activity at 0.000660151 µM (Sec61; [2]): 93.6%
remaining activity at 0.004 µM (Sec61; HEK-293T, 24 h, pPL signal peptide, Drug nM (log10) 4, read-out: secreted luciferase activity (% of no-drug control)): 14%
remaining activity at 0.00050805 µM (Sec61; [2]): 97.9%
IC50 (Sec61; read-out: IC50, prolactin signal peptide in SP-GLuc secretion assay): ~1000 nM
remaining activity at 0.00152 µM (Sec61α (HEK 293 FRT); Drug nM (log10) 0.18303, read-out: luciferase reporter activity (% of no-drug control)): 88.7%
remaining activity at 0.00457 µM (Sec61α (HEK 293 FRT); Drug nM (log10) 0.660151, read-out: luciferase reporter activity (% of no-drug control)): 75.3%
remaining activity at 0.04115 µM (Sec61α (HEK 293 FRT); Drug nM (log10) 1.61439, read-out: luciferase reporter activity (% of no-drug control)): 27%
remaining activity at 0.1235 µM (Sec61α (HEK 293 FRT); Drug nM (log10) 2.09151, read-out: luciferase reporter activity (% of no-drug control)): 12.8%
remaining activity at 0.37 µM (Sec61α (HEK 293 FRT); Drug nM (log10) 2.56864, read-out: luciferase reporter activity (% of no-drug control)): 4.89%
remaining activity at 1.111 µM (Sec61α (HEK 293 FRT); Drug nM (log10) 3.04576, read-out: luciferase reporter activity (% of no-drug control)): 2.41%
remaining activity at 3.33 µM (Sec61α (HEK 293 FRT); Drug nM (log10) 3.52288, read-out: luciferase reporter activity (% of no-drug control)): 2.03%
remaining activity at 10 µM (Sec61α (HEK 293 FRT); Drug nM (log10) 4, read-out: luciferase reporter activity (% of no-drug control)): 2.36%
remaining activity at 0.00050805 µM (Sec61α (HEK 293 FRT); Drug nM (log10) -0.29409, read-out: luciferase reporter activity (% of no-drug control)): 92.4%
viral genome copy number (SARS-CoV-2; 0.01 uM): 25500000 and 22400000 and 23500000
viral genome copy number (SARS-CoV-2; 0.04 uM): 23500000 and 23900000 and 21400000
viral genome copy number (SARS-CoV-2; 0.12 uM): 29500000 and 28600000 and 23600000
viral genome copy number (SARS-CoV-2; 0.37 uM): 48700000 and 30700000 and 26200000
viral genome copy number (SARS-CoV-2; 1.11 uM): 22100000 and 25700000 and 28600000
viral genome copy number (SARS-CoV-2; 3.33 uM): 11600000 and 10500000 and 12800000
viral genome copy number (SARS-CoV-2; 10 uM): 8080000 and 9090000 and 8060000
competition of photo-cotransin crosslinking to Sec61α (Sec61α): efficiently competed
remaining activity at 0.00018303 µM (Sec61α Q294A; Drug nM (log10) 0.18303): 80.7%
remaining activity at 0.000660151 µM (Sec61α Q294A; Drug nM (log10) 0.660151): 67.2%
remaining activity at 0.00113727 µM (Sec61α Q294A; Drug nM (log10) 1.13727): 44.1%
remaining activity (Sec61α Q294A; Drug nM (log10) 1.61439): 22.4%
remaining activity (Sec61α Q294A; Drug nM (log10) 2.09151): 11%
remaining activity (Sec61α Q294A; Drug nM (log10) 2.56864): 4.26%
remaining activity (Sec61α Q294A; Drug nM (log10) 3.04576): 2.2%
remaining activity (Sec61α Q294A; Drug nM (log10) 3.52288): 1.85%
remaining activity at 0.004 µM (Sec61α Q294A; Drug nM (log10) 4): 2.09%
remaining activity at 0.000508 µM (Sec61α Q294A; Drug nM (log10) -0.29409): 89.6%
remaining activity at 0.00018303 µM (Sec61α V303A; Drug nM (log10) 0.18303): 95.1%
remaining activity at 0.000660151 µM (Sec61α V303A; Drug nM (log10) 0.660151): 82.2%
remaining activity at 0.00113727 µM (Sec61α V303A; Drug nM (log10) 1.13727): 64.5%
remaining activity (Sec61α V303A; Drug nM (log10) 1.61439): 42%
remaining activity (Sec61α V303A; Drug nM (log10) 2.09151): 21.1%
remaining activity (Sec61α V303A; Drug nM (log10) 2.56864): 8.79%
remaining activity (Sec61α V303A; Drug nM (log10) 3.04576): 3.93%
remaining activity (Sec61α V303A; Drug nM (log10) 3.52288): 2.95%
remaining activity at 0.004 µM (Sec61α V303A; Drug nM (log10) 4): 3.21%
remaining activity at 0.00050805 µM (Sec61α V303A; Drug nM (log10) -0.29409): 96.2%
